According to PMC4865820, “Branched Peptide, B2088, Disrupts the Supramolecular Organization of Lipopolysaccharides and Sensitizes the Gram-negative Bacteria” (Scientific Reports, 2016):

Columns and labels:
P. aeruginosa DR4877/07 [1] = assay: microbe, parasite or virus in culture; settings: for MIC: Pseudomonas aeruginosa, DR4877/07, 24 h, read-out: MIC of antibiotics
Method: MIC of each peptide was determined using the microdilution method in a 96 well microtitre plates (SPL Life Sciences Co., Ltd, Korea). Two-fold serial dilutions of each peptide in Mueller-Hinton Broth (MHB) was prepared from a 1 mg/ml stock solution of the peptide in the same broth, to obtain a final concentration in the range of 0.0976–50 μg/ml in each well. Bacterial suspensions (P. aeruginosa ATCC 27853, P. aeruginosa 4877, P. aeruginosa 23155, K. pneumoniae ATCC 10031 and K. pneumoniae 4299) were prepared by suspending the overnight cultured bacteria in saline and adjusting the inoculum to ~10^8 colony forming units (CFU) per ml. A further 150-fold dilution was then prepared in MHB to achieve a final cell density of 10^5–10^6 CFU/ml. In each well, 100 μl of inoculum was mixed with the equal volume of peptides at their 2× concentration. Positive and negative controls contained 200 μl of inoculum (without any peptide) and broth alone (no peptide/inoculum) respectively. Another negative control in which MHB containing 200 μl of peptide alone in its highest concentration tested (50 μg/ml) was also included to ensure that the optical density measured in the test wells was not due to turbidity of the peptides in solution. The 96 well polystyrene plates were then incubated at 37 °C for 24 h and the optical density at 600 nm (OD600) was measured every 30 min continuously using a TECAN microplate reader (TECAN Infinite 200, Austria).

P. aeruginosa DR4877/07 [2] = assay type: cell-based; settings: for FICI of B2088-antibiotic combination: lowest FICI reported, two independent duplicates
Method: The synergism between peptides with conventional antibiotics was evaluated using checkerboard assays. For a comparison polymyxin B (PMB) was also tested against each antibiotic. From their stock solutions, two-fold dilutions of each antibiotic and peptide to 1× MIC were prepared in MHB. 50 μl of each peptide concentration was added into the wells of a 96-well polystyrene plates (SPL Life Sciences Co. Ltd, Korea) in a horizontal orientation and the same volume of each antibiotic concentration were then added in a vertical orientation. Bacterial suspensions were prepared in MHB to yield final cell density of ~10^6 CFU/ml and 100 μl of bacterial suspension was mixed with each peptide-antibiotic combinations. This procedure was repeated for wells containing 200 μl of peptide alone and 200 μl of antibiotic alone in various concentrations. The positive and negative controls contained 200 μl of inoculum and MHB alone respectively. The plates were incubated at 37 °C for 24 hours and the optical density at 600 nm (OD600) was monitored as before. Fractional inhibitory concentration index (FICI) for all antibiotic- peptide combinations was calculated through the summation of (MIC of peptide in the combination/ MIC of peptide alone) and (MIC of antibiotics in combination/MIC of antibiotic alone). The experiments were performed in two independent duplicates and the combinations that gave the lowest FICI values was reported.

[3] = tested on: LPS (E. coli serotype 055:B5); assay: BODIPY TR cadaverine (BC) displacement assay with LPS; assay type: binding
From the text: To investigate the interaction of B2088 with LPS, we performed the BODIPY TR cadaverine (BC) displacement assay reported by Wood et al.[22]. The probe binds to the lipid A part of the LPS with moderate affinity and can be displaced by putative LPS-binding molecules. The method was used to probe the affinity of polycationic molecules and LPS binding proteins. First, we determined the affinity of polymyxin B (PMB), a lipopeptide cyclic antibiotic which has a high affinity for LPS. […] Figure 1a,b show the concentration-dependent displacement of LPS/lipid A-bound BC upon addition of B2088. […] To confirm the importance of branching, we determined the BC50 for a linear retrodimer having the amino acid sequence, […] (Fig. 1d). The determined value was 2-fold higher (3.9 ± 0.1 μM) than that of B2088, confirming a weaker affinity of the linear peptide.
The BC displacement assay was used to determine the ability of each peptide to bind to LPS. The florescent probe, BODIPY TR cadaverine (BC) was purchased from Molecular Probes/ Invitrogen (USA). A stock solution containing 1 mg/ml of LPS (E. coli serotype 055:B5) was prepared in dimethyl sulfoxide (DMSO) and another stock solution containing 1 mg/ml of BC dye was prepared in 5 mM HEPES buffer (pH 7.4). The optimum saturation concentration of BC:LPS ratio was standardized following the protocol provided by Wood et al. (22). From the BC stock, 240 μl was mixed with 500 μl from the LPS stock solution in 5 mM HEPES buffer (pH 7.4) to prepare 20 ml of BC:LPS mixture. Two-fold serial dilutions of each peptide in 5 mM HEPES buffer (pH 7.4) was prepared from their 1 mg/ml stock solutions to obtain a final range of 0.02–25.6 μM. The BC:LPS mixture was added to 100 μl of each peptide congener in a 1:1 ratio in each well of a 96-well black Costar™ polystyrene microtitre plate (Corning Incorporated, NY, USA). The maximum fluorescence intensity (Fmax) was determined using a mixture containing 100 μl PMB (50 μg/ml) and 100 μl BC:LPS solution, as PMB is considered the ‘gold standard’ for LPS-sequestering agents. The minimum fluorescence intensity (F0) was measured using 200 μl of BC:LPS mixture to determine the background noise for this experiment. Fluorescence measurements for each peptide (F) were determined using a microplate reader (Model: TECAN Infinite 200, Austria) with excitation and emission wavelengths set at 580 nm and 620 nm respectively. The percentage of BC displacement was then calculated using the formula: […]
The experiments were performed in duplicates and the effective concentration required for 50% displacement of BC dye (ED50) from LPS with respect to PMB was determined by curve fitting using Graphpad Prism (CA, USA). A higher ED50 value for the peptide indicates a lower affinity for LPS.

[4] = MIC of B2088 6.25 μg/ml, MHB, ~10^6 CFU/ml, 37 °C, 24 h

| Compound | MIC (P. aeruginosa DR4877/07 [1]) [µg/mL] | MIC of antibiotics in the presence of ½× sub-MIC of B2088 (P. aeruginosa DR4877/07 [2]; [4]) [µg/mL] | MIC of antibiotics in the presence of ¼× sub-MIC of B2088 (P. aeruginosa DR4877/07 [2]; [4]) [µg/mL] | FICI of B2088-antibiotic combination (P. aeruginosa DR4877/07 [2]) | further results |
| --- | --- | --- | --- | --- | --- |
| C[C@@H](O)[C@H]1C(=O)N2C(C(=O)O)=C(SCCN=CN)C[C@H]12 [Imipenem, reference compound] | 0.78 | 0.0975 | 0.195 |  |  |
| NC[C@H]1O[C@H](O[C@H]2[C@H](O)[C@@H](O[C@H]3O[C@H](CO)[C@@H](O)[C@H](N)[C@H]3O)[C@H](N)C[C@@H]2N)[C@H](O)[C@@H](O)[C@@H]1O [Kanamycin, reference compound] |  | 800 | 1600 | 0.75 | Fold decrease in the MIC of antibiotics at sub-lethal/sub-inhibitory concentrations of B2088 (P. aeruginosa DR4877/07 [2]; multidrug resistant P. aeruginosa 4877): 4 fold; MIC of antibiotics (P. aeruginosa DR4877/07 [1]; antibiotic alone, MHB, 37 °C, 24 h, OD600): 3200 µg/mL |
| C[C@H]1COc2c(N3CCN(C)CC3)c(F)cc3c(=O)c(C(=O)O)cn1c23 [Levofloxacin, reference compound] | 50 | 12.5 |  | 0.75 |  |
| [H]/N=C(/N)N[C@H]1[C@H](O)[C@@H](O)[C@H](O[C@@H]2O[C@@H](C)[C@](O)(C=O)[C@H]2O[C@@H]2O[C@@H](CO)[C@H](O)[C@@H](O)[C@@H]2NC)[C@@H](N/C(N)=N\[H])[C@@H]1O [Streptomycin, reference compound] | 200 | 50 | 100 | 0.75 | MIC of antibiotics in the presence of ⅛× sub-MIC of B2088 (P. aeruginosa DR4877/07 [2]; [4]): 100 µg/mL |
| RGRKVVRRKKRRVVKRGR [linear retrodimer] |  |  |  |  | ED50 (50% displacement of BC dye from LPS; also called BC50) ([3]; 5 mM HEPES pH 7.4, fluorescence ex 580/em 620 nm, with respect to PMB, duplicates): 3.9 ± 0.1 µM; BC50 fold higher than that of B2088 ([3]; LPS-bound BC): 2 fold; FICI with chloramphenicol (P. aeruginosa DR4877/07 [2]; additive effect): 1; FICI with gatifloxacin (P. aeruginosa DR4877/07 [2]; additive effect): 1; FICI with tobramycin (P. aeruginosa DR4877/07 [2]; additive effect): 1 |

More lines, in order of falling MIC (P. aeruginosa DR4877/07 [1]), values ahead:

| MIC (P. aeruginosa DR4877/07 [1]) [µg/mL] | MIC of antibiotics in the presence of ½× sub-MIC of B2088 (P. aeruginosa DR4877/07 [2]; [4]) [µg/mL] | MIC of antibiotics in the presence of ¼× sub-MIC of B2088 (P. aeruginosa DR4877/07 [2]; [4]) [µg/mL] | Compound | FICI of B2088-antibiotic combination (P. aeruginosa DR4877/07 [2]) | further results |
| --- | --- | --- | --- | --- | --- |
| 3200 | 400 |  | CCn1cc(C(=O)O)c(=O)c2ccc(C)nc21 [Nalidixic acid, reference compound] | 0.63 | FICI of polymyxin B-antibiotic combination (P. aeruginosa DR4877/07 [2]): 1.0 |
| 100 | 50 |  | CC[C@H]1OC(=O)[C@H](C)[C@@H](O[C@H]2C[C@@](C)(OC)[C@@H](O)[C@H](C)O2)[C@H](C)[C@@H](O[C@@H]2O[C@H](C)C[C@H](N(C)C)[C@H]2O)[C@](C)(O)C[C@@H](C)C(=O)[C@H](C)[C@@H](O)[C@]1(C)O [Erythromycin, reference compound] | 1.0 |  |
| 12.5 |  |  | O=C(O)c1cn(C2CC2)c2cc(N3CCNCC3)c(F)cc2c1=O [Ciprofloxacin] |  |  |
